Measurements reported in patent publication US10870647B2, “Imidazopyridine derivative, method for preparing same, and pharmaceutical composition containing same as active ingredient for preventing or treating cancer” (DAEGU-GYEONGBUK MEDICAL INNOVATION FOUNDATION, priority 2016, dated 2020).

Columns and labels:
Experiment in all cases: Kinase selectivity, scanMAX Kinase assay panel (DiscoverX), % control at 1 uM
Assay type in all cases: binding
[1] = target: T1, scanMAX Kinase assay panel (Homo sapiens, UniProt O14730); details: RIOK3; 1 uM; read-out: Percent Control (%)
T1 construct: purchased DiscoverX
T1 sequence (O14730 1-519): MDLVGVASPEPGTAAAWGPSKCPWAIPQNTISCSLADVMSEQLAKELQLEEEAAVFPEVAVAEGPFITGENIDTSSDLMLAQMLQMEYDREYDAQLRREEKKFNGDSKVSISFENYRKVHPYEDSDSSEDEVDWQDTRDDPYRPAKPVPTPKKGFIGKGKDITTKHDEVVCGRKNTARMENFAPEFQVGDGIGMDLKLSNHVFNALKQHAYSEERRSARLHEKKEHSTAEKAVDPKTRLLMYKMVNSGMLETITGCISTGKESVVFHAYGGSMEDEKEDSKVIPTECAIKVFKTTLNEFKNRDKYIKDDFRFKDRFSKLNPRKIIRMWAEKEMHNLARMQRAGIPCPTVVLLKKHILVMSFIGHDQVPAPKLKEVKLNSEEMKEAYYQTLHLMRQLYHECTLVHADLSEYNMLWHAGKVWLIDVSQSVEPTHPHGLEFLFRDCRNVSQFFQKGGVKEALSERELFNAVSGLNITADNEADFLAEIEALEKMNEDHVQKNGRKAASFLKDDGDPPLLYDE
Outline: (§1)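 Binding across the scanMAX kinase panel was tested at 1 uM compound. % control = (compound − positive control)/(negative control − positive control) × 100; below 35 counted as active.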

[2] = target: T2, scanMAX Kinase assay panel (Homo sapiens, UniProt O75914); details: PAK3; 1 uM; read-out: Percent Control (%)
T2 construct: purchased DiscoverX
T2 sequence (O75914 whole entry): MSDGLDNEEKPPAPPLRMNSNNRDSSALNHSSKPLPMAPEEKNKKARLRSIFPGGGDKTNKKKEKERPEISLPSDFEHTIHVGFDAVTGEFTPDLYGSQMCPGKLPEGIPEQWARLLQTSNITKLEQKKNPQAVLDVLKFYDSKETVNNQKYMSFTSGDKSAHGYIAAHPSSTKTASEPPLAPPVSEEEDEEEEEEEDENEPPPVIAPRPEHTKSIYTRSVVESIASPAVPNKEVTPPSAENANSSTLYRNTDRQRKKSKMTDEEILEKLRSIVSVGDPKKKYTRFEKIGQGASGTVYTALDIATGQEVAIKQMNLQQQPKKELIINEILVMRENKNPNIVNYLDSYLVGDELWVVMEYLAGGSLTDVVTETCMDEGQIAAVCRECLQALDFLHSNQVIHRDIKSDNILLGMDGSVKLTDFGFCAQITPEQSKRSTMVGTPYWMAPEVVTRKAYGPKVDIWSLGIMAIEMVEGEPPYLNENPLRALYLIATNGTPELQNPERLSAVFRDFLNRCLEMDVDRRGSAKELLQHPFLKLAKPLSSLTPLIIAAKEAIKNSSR
Outline: as §1

[3] = target: T3, scanMAX Kinase assay panel (Homo sapiens, UniProt P30530); details: AXL; 1 uM; read-out: Percent Control (%)
T3 construct: purchased DiscoverX
T3 sequence (P30530 26-894): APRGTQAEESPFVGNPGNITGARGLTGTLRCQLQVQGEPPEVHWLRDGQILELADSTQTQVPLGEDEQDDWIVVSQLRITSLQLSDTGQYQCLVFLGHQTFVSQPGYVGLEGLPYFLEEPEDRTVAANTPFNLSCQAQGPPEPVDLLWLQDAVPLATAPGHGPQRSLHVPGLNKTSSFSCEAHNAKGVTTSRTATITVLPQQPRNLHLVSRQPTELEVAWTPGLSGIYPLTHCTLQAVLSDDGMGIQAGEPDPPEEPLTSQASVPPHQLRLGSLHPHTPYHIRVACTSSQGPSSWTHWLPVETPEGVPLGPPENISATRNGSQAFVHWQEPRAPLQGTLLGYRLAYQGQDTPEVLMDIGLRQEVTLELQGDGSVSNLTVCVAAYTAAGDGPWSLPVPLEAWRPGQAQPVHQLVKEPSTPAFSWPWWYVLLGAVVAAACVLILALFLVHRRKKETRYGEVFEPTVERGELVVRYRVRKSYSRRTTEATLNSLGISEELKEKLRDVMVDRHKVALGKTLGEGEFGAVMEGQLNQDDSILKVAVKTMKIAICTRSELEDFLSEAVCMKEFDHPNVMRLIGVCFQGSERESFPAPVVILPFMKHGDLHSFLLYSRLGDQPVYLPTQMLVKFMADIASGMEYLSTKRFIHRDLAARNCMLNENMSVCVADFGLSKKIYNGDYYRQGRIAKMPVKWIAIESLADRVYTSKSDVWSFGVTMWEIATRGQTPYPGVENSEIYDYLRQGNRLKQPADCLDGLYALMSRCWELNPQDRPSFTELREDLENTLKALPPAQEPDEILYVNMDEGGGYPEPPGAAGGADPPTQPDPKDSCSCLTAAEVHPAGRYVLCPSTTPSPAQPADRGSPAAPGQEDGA
Outline: as §1

[4] = target: T4, scanMAX Kinase assay panel (Homo sapiens, UniProt P46734); details: MEK3; 1 uM; read-out: Percent Control (%)
T4 construct: purchased DiscoverX
T4 sequence (P46734 1-347): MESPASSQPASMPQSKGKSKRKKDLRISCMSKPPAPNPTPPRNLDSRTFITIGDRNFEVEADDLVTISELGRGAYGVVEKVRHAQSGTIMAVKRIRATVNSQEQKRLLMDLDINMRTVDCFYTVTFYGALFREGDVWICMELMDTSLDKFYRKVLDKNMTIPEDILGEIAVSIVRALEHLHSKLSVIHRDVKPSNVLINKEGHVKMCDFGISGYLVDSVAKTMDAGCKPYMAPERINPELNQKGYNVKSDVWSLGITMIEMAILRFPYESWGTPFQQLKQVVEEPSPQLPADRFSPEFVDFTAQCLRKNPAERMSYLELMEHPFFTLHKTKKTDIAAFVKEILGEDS
Outline: as §1

[5] = target: T5, scanMAX Kinase assay panel (Homo sapiens, UniProt P51813); details: BMX; 1 uM; read-out: Percent Control (%)
T5 construct: purchased DiscoverX
T5 sequence (P51813 1-675): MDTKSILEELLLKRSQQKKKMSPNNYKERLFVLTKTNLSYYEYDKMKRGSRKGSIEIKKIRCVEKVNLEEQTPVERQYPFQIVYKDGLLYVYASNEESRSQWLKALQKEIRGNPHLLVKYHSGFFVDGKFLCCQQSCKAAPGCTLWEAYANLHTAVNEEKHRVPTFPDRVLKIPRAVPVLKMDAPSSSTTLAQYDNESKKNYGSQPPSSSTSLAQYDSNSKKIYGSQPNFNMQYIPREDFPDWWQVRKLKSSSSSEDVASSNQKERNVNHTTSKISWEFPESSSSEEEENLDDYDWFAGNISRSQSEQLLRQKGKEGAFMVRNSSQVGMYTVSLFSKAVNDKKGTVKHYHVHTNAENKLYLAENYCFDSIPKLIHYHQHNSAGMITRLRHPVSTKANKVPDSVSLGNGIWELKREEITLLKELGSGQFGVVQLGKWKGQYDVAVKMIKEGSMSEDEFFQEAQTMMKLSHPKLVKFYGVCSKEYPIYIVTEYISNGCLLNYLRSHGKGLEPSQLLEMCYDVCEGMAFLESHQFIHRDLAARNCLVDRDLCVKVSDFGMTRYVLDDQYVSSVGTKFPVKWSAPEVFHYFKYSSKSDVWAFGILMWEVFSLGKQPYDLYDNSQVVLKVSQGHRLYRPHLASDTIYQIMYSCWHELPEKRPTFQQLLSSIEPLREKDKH
Outline: as §1

[6] = target: T6, scanMAX Kinase assay panel (Homo sapiens, UniProt Q9P286); details: PAK7; 1 uM; read-out: Percent Control (%)
T6 construct: purchased DiscoverX
T6 sequence (Q9P286 whole entry): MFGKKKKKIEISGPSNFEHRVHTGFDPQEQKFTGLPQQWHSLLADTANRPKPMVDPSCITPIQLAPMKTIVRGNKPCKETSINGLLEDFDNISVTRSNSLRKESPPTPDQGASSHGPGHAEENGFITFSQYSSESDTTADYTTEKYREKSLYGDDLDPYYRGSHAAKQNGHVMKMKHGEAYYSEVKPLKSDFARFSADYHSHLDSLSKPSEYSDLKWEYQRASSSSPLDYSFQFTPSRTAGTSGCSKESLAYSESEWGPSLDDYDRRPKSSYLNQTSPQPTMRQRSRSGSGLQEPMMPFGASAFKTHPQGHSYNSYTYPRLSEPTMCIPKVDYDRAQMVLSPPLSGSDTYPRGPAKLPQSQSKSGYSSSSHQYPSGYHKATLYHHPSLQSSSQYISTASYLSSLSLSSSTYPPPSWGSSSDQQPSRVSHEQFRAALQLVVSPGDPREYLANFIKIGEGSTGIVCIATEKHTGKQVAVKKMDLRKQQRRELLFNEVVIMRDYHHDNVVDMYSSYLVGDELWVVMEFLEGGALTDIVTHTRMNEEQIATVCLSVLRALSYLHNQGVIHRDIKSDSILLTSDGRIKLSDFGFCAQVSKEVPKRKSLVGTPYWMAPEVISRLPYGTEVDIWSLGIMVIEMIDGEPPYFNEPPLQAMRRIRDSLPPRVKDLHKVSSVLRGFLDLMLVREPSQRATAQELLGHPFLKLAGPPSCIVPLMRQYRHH
Outline: as §1

| Structure (SMILES) | remaining binding at 1 µM [1] | remaining binding at 1 µM [2] | remaining binding at 1 µM [3] | remaining binding at 1 µM [4] | remaining binding at 1 µM [5] | remaining binding at 1 µM [6] |
| --- | --- | --- | --- | --- | --- | --- |
| Cc1ccc(C(=O)Nc2ccc(CN3CCN(C)CC3)c(C(F)(F)F)c2)cc1C#Cc1cnc2c(Nc3cnn(C)c3)cccn12 [Example 1, 4-methyl-3-((8-((1-methyl-1H-pyrazol-4-yl)amino)imidazo[1,2-a]pyridin-3-yl)ethynyl)-N-(4-((4-methylpiperazin-1-yl)methyl)-3-(trifluoromethyl)phenyl)benzamide] | 94% | 85% | 2% | 81% | 3% | 100% |
| Cc1cn(-c2cc(NC(=O)c3ccc(C)c(C#Cc4cnc5c(Nc6cnn(C)c6)cccn45)c3)cc(C(F)(F)F)c2)cn1 [Example 12, 4-methyl-N-(3-(4-methyl-1H-imidazol-1-yl)-5-(trifluoromethyl)phenyl)-3-((8-((1-methyl-1H-pyrazol-4-yl)amino)imidazo[1,2-a]pyridin-3-yl)ethynyl)benzamide] | 96% | 95% | 48% | 100% | 9% | 100% |
| Cc1ccc(NC(=O)C2(C(=O)Nc3ccc(F)cc3)CC2)cc1C#Cc1cnc2c(Nc3cnn(C(C)C)c3)cccn12 [Example 78] | 95% | 83% | 93% | 96% | 96% | 100% |
